One series relates to BZLF1. Kind of series: EBV reactivation by BZLF1 gRNA transfection (Casilio) in SNU-719 cells stably expressing HA-dCas9-EGFP and 3×FLAG-PUFa-p65HSF1. Type of series: cell-based, Epstein-Barr virus (EBV). As to the method:
SNU-719 and C666-1 cells stably expressing HA-dCas9-EGFP and 3×FLAG-PUFa-p65HSF1 were cultivated in RPMI-1640 (Sigma) with 10% fetal bovine serum (FBS) (Gibco) and 1% GlutaMAX (Gibco) and cultured in 37° C. incubator with 5% CO2. EBV reactivation experiments were conducted with cells seeded into 6-well plates at 2×10^6 cells per well the day before transfection. 2 micrograms (μg) of control gRNA or individual BZLF1 gRNA (A3) (SEQ ID NO: 8), gRNA (A4) (SEQ ID NO: 9), gRNA (A5) (SEQ ID NO: 10), or gRNA (A6) (SEQ ID NO: 11) gRNAs were transfected into cells with Lipofectamine 2000 (Invitrogen). After transfection, cells were grown for 48 hours and harvested for protein extraction or FACS (FIGS. 4, 5, 7A-7E).
FACS Analysis. Cells were harvested with trypsin and fixed for 15 minutes (mins) with 4% paraformaldehyde. The cells were then centrifuged at 2000×g for 5 mins and resuspended in 3% BSA for 30 mins. The resuspend cells were centrifuged again at 2000×g for 5 mins. […] Samples were analyzed on a FACSCalibur flow cytometer using CellQuest Pro software (BD Bioscience). […]
Quantitative RT-PCR Analysis. […] Power SYBR Green master mix was used for performing real-time quantitative PCR (RT-qPCR). […] The RT-qPCR samples were analyzed with a Roche LC480 PCR instrument. Gene expression levels were calculated by “delta Ct” algorithm and normalized to control samples.

The next series concerns SNU-719 cells. The series is described as follows: Growth proliferation, viability, apoptosis, cell cycle and clonogenic assays in SNU-719 cells. Type of series: cell-based. Here is the method:
Growth proliferation assay. SNU-719 HA-dCas9-Tet-on-PUFa-p65HSF1-BZLF1 gRNA (3) or C666-1 HA-dCas9-Tet-on-PUFa-p65HSF1-BZLF1 gRNA (A5) cells were seeded into individual wells of a 96-well plate for at 1×10^5 cells per well the day before being treated with 1 μg/mL DOX and Ganciclovir (GCV). Cells were counted with the cell counting kit-8 (CCK-8, Sigma) at day 6, day 7, and day 8 (FIGS. 8H-8I).
Active caspase-3 analysis. To detect the apoptosis in DOX treated dCas9-Tet on-p65HSF1-BZLF1sgRNA3 SNU719 and C17 cells, active caspase-3 apoptosis kit (BD Pharmingen #550914) was used. Untreated and treated cells were trypsinized and then fixed with fixation buffer in ice for 20 mins and washed with washing buffer twice. Cells were then stained with the PE conjugated rabbit anti active caspase-3 antibody in dark for 30 mins. Stained cells were collected with BD LSRFortessa.
Cell cycle analysis. After 96 hours from induction of DOX, dCas9-Tet on-p65HSF1-BZLF1sgRNA3 SNU719 and C17 cells were trypsinized and then fixed with 75% cold ethanol for 2 hrs at −20° C. Cells were washed three times with cold PBS and then resuspended in PBS containing 100 μg/mL RNase A and 10 μg/mL propidium iodide for 10 min at room temperature. Stained cells were collected with BD LSRFortessa.
Clonogenic assays. Cells were seeded at a density of 500 cells/well in 6-well plates the day before treatment. Then cells were stained with 0.5% crystal violet 14 days after treatment, and at least 50 cells were considered as a single colony

Consider one substance from patent US20230114264A1, “ACTIVATION OF LYTIC GENES IN CANCER CELLS” (priority 2020, published 2023).

For “BZLF1 gRNA (A5): BZLF1 gRNA spacer sequence SEQ ID NO: 10, GAAACTATGCATGAGCCAC (chemistry not given here)”, the “EBV reactivation, induction of BZLF1 (Zta) protein expression” value in the series on BZLF1 (2 μg gRNA, 48 hours after transfection, protein extraction or FACS) is recorded as “reactivate EBV expression at detectable levels”. Moreover, in the series with BZLF1 (FIG. 7E), the “BZLF1 (ZTa) protein expression by immunostaining” value is given as “activated BZLF1 (ZTa) protein expression”. In addition, the “cell cycle by flow cytometry” value with SNU-719 cells (SNU719, DOX induced, FIG. 17B) was “sub G1 phase accumulation and S phase decrease”. In addition, the monolayer colony formation result with SNU-719 cells (SNU719, after DOX induction, FIG. 17E) is given as “dramatic suppression”. In addition, the “cell proliferation, apoptosis and growth of cells in vitro” value with SNU-719 cells (SNU-719, DOX-induced EBV reactivation) was “suppressed the cell proliferation, induced apoptosis, and slowed the growth of cells”. The “slowing of growth rate of cells compared with cells treated with ganciclovir (GCV) alone” value in the series on SNU-719 cells (SNU-719, EBV reactivation by 1 μg/mL DOX, FIG. 8I) was “greater than 4 fold”.
